What was measured:
[1] = PAMPA membrane permeability assay; format: in vitro ADME; settings: permeability coefficient, pH 7.4 buffer, GIT lipid, 4 hours incubation
Method: The PAMPA assay (pION, Inc., Woburn Mass.) was used to determine the ability of compounds of the invention to cross an artificial lipid membrane by passive diffusion. Test compounds were dissolved in DMSO (10 mM) and diluted 200-fold in buffer (pION Inc., pH 7.4) to provide 50 uM stock solutions. Buffer (150 μL) was added to a UV blank plate and stock solutions (150 μL) were transferred to a UV reference plate. The blank and reference spectrum were read using a spectrophotometer. Stock solutions (200 μL) were added to the donor plate of the PAMPA sandwich plate and an accept plate painted with GIT lipid (pION Inc, 5) was placed on top. Buffer (200 μL) was added to the acceptor plate and the PAMPA sandwich plate was incubated for 4 hours. Aliquots (150 μL) from the acceptor plate were added to a UV plate and read as acceptor spectrum. Aliquots (150 μL) of the donor solutions were added to a UV analysis plate and read as donor spectrum. The permeability coefficient of test compounds was calculated using PAMPA Explorer™ software (version 3.5.0.4) based on the AUC of the reference plate, the donor plate, and the acceptor plate.
The PAMPA permeability results (10^−6 cm/s) of representative compounds are reported as “+” (<0.1 10^−6 cm/s), “++” (0.1-2.0 10^−6 cm/s), “+++” (2.0-10.010^−6 cm/s) or “++++” (>10.0 10^−6 cm/s).

NaV1.7 = biological target: T1, NaV1.7 (Homo sapiens, UniProt Q15858); test: Manual patch clamp, internal block of NaV1.7 current; format: cell-based; settings: compound in internal solution, HEK293 cells, read-out: Nav1.7 Intracellular Inhibition; for inhibition at 10 µM: % inhibition at 10 μM test concentration; for inhibition at 3 µM: % inhibition at 3 μM test concentration
T1 construct: expressed in transfected cells; host or cells: HEK293 (tetracycline-inducible)
T1 sequence (Q15858 whole entry): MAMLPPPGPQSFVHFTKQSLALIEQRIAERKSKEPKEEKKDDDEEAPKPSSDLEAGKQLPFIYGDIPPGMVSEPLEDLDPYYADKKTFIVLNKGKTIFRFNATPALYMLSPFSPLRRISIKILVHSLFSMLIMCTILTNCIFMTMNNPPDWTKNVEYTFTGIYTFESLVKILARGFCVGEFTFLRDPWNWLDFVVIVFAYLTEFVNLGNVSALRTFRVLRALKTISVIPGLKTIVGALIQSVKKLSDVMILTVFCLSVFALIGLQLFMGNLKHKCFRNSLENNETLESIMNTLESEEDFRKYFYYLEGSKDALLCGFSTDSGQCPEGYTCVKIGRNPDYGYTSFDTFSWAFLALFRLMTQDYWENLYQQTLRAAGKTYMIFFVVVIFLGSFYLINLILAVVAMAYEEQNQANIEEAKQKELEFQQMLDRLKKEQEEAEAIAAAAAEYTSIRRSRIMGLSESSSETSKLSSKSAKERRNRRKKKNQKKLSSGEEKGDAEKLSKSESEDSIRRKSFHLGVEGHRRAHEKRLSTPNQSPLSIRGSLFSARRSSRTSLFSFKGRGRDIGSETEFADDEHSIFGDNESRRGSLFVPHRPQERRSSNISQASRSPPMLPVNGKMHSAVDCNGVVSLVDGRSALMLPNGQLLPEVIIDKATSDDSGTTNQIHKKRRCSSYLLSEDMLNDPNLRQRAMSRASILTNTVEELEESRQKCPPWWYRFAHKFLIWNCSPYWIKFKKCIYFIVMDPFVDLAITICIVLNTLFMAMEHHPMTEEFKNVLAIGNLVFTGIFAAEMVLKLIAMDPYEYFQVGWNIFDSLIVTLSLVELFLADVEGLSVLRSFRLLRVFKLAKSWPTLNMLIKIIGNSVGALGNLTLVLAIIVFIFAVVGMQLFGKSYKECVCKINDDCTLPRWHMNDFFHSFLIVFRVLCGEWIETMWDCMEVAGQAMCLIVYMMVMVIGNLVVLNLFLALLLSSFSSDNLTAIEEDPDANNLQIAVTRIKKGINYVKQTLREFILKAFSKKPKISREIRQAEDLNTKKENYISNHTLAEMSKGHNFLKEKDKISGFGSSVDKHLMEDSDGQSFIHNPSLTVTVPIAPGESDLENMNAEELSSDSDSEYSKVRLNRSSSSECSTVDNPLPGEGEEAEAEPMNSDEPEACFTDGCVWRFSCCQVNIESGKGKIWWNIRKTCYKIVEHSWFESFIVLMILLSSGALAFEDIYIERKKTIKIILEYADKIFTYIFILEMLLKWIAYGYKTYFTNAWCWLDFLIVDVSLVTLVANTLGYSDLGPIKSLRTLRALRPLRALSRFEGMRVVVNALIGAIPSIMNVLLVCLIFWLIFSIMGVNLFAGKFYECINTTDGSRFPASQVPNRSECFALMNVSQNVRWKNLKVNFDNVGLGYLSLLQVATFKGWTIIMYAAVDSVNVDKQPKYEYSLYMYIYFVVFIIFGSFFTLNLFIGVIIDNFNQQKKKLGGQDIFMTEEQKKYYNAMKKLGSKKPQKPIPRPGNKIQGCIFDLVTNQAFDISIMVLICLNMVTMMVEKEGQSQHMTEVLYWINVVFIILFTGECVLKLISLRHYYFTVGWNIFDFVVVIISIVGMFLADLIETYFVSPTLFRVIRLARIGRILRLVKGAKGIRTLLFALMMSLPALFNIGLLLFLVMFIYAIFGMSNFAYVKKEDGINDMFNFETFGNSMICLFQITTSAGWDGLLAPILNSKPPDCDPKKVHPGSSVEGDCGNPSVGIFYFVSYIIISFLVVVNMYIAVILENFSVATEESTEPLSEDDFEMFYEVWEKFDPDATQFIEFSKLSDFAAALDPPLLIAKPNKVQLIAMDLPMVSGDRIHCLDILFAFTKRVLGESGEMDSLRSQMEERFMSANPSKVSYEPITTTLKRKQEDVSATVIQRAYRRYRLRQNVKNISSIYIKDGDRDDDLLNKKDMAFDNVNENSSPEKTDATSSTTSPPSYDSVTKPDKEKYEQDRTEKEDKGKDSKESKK
Method: Representative compounds of the invention were synthesized according to the described methods and tested for the ability to inhibit voltage-gated sodium channels.
NaV1.7 was expressed in HEK293 cells upon induction with tetracycline. Cells were cultured in DMEM containing 10% dialyzed Fetal Bovine Serum (VWR, Radnor, Pa.), 1% Glutamax (VWR, Radnor, Pa.), 1% Penicillin-Streptomycin (VWR, Radnor, Pa.), 100 mg/L Hygromycin (Thermo Fisher Scientific, Waltham, Mass. and 5 mg/L Blasticidin (Alfa Aesar, Haverhill, Mass.). Cells were grown and maintained at 37° C. in a humidified environment containing 10% CO2 in air. Cells were detached from the culture flask for passage and harvested using 0.05% Trypsin-EDTA (Thermo Fisher Scientific, Waltham, Mass.). To induce NaV1.7, cells were induced with tetracycline (0.1-1 μg/mL, IBI Scientific, Peosta, Iowa) the day before recording and plated onto 24-well plates. Cells were washed with DPBS (VWR, Radnor, Pa.), trypsinized and then triturated five times in 10 mL of growth media to break apart cell aggregates. For one 24-well plate, 2 mL of cell suspension was mixed with 23 mL of fresh growth media and 0.1-1 μg/mL tetracycline added. 1 ml of mixed media with cells was then added to each well of a 24-well plate, with a 12 mm coverslip already placed in the bottom of the well. Cells were then incubated in 37° C. and 10% CO2 overnight.
The intracellular solution contained the following (in mM) CsCl 135, NaCl 10, EGTA 10, HEPES 10, MgCl2 2, adjusted to pH 7.2 with CsOH. The external solution was a normal Ringer solution containing (in mM) NaCl 155, HEPES 10, glucose 10, KCl 3.5, CaCl2 1.5, MgCl2 1 adjusted to pH 7.4 with NaOH. CsCl is from Alfa Aesar, Haverhill, Mass. All other chemicals are from Sigma-Aldrich, St. Louis, Mo. In order to test the degree of internal block by test compounds the compounds were dissolved in internal solution at the indicated test concentration. […] In order to test the degree of external block by test compounds the compounds were dissolved in external solution at the indicated test concentration.
18-24 hours after cells were induced with tetracycline, coverslips were placed into a chamber filled with Normal Ringer solution at room temperature and the chamber placed on a microscope. Pipettes were pulled from borosilicate glass on a P97 puller (Sutter Instrument, Novato, Calif.) and polished with a MF-830 Microforge (Narishige International USA, Inc., Amityville, N.Y.) to have a resistance of 1.5-2.5 MΩ when filled with CsCl internal solution at room temperature. Healthy cells (those that are round and translucent with no visible blemishes) were chosen for seal formation. A seal was formed between the pipette and the cell, and a brief pulse of suction was used to “break in” and establish the whole-cell configuration. The membrane potential was held at −100 mV before the voltage protocol began. Only cells with series resistance between 1.5-5 MΩ were retained for analysis. The voltage protocol was as follows: Cells were held at −100 mV for 12 ms followed by a hyperpolarizing step to −105 mV for 12 ms to monitor the leak. Cells were then stepped back to −100 mV for 40 ms. Cells were then depolarized to −20 mV for 10 ms and then returned to −100 mV for 26 ms.
Once the recording was started, the voltage protocol was run at 30 second intervals for 5 minutes to get a stable baseline. This was followed by four 30-second periods of 5 Hz stimulation of the same voltage protocol separated by 1 minute of rest which was then followed by 0.33 Hz stimulation after the last train. Currents were recorded using PatchMaster software with Heka EPC10 (HEKA Electronics, Lambrecht, Germany). Only cells with inward current amplitudes at −20 mV between 400 pA and 4 nA were accepted. In addition, cells having leak currents greater than 10% of their current amplitudes were discarded. […]

## CCC(C(=O)Nc1c(C)cccc1C)[N+]1(Cc2cccc(F)c2)CCCCC1 (stereo not drawn) [Compound 8A]
[1]
  PAMPA (10^−6 cm/s): + (“+” (<0.1 10^−6 cm/s))
NaV1.7
  inhibition at 10 µM: 70 to 95%

## CC[N+](CC)(CC(=O)Nc1c(C)cccc1C)Cc1ccccc1 [Compound 1A, N-benzyl-2-((2,6-dimethylphenyl)amino)-N,N-diethyl-2-oxoethan-1-aminium bromide]
NaV1.7
  inhibition at 10 µM: 70 to 95%

## CCC(C(=O)Nc1c(C)cccc1C)[N+]1(Cc2ccccc2C#N)CCCCC1 (stereo not drawn) [Compound 15A]
[1]
  PAMPA (10^−6 cm/s): + (“+” (<0.1 10^−6 cm/s))
NaV1.7
  inhibition at 10 µM: > 95%

## CCC(C(=O)Nc1c(C)cccc1C)[N+]1(Cc2ccc(C)cc2)CCCCC1 (stereo not drawn) [Compound 16A]
[1]
  PAMPA (10^−6 cm/s): + (“+” (<0.1 10^−6 cm/s))
NaV1.7
  inhibition at 10 µM: > 95%

## CCC(C(=O)Nc1c(C)cccc1C)[N+]1(Cc2ccccc2OC)CCCCC1 (stereo not drawn) [Compound 24A, 1-(1-((2,6-dimethylphenyl)amino)-1-oxobutan-2-yl)-1-(2-methoxybenzyl) piperidin-1-ium bromide]
NaV1.7
  inhibition at 3 µM: > 90%
  inhibition at 10 µM: > 95%

## CCC(C(=O)Nc1c(C)cccc1C)[N+]1(Cc2ccccc2O)CCCCC1 (stereo not drawn) [Compound 28A, 1-(1-((2,6-dimethylphenyl)amino)-1-oxobutan-2-yl)-1-(2-hydroxybenzyl) piperidin-1-ium 2,2,2-trifluoroacetate]
NaV1.7
  inhibition at 3 µM: < 40%
  inhibition at 10 µM: 40 to 70%

## CCC(C(=O)Nc1c(C)cccc1C)[N+]1(Cc2ccccc2Cl)CCCCC1 (stereo not drawn) [Compound 12A]
[1]
  PAMPA (10^−6 cm/s): + (“+” (<0.1 10^−6 cm/s))
NaV1.7
  inhibition at 10 µM: > 95%

## CCC(C(=O)Nc1c(C)cccc1C)[N+]1(Cc2ccc(Cl)cc2)CCCCC1 (stereo not drawn) [Compound 10A]
[1]
  PAMPA (10^−6 cm/s): + (“+” (<0.1 10^−6 cm/s))
NaV1.7
  inhibition at 10 µM: 70 to 95%

## CCCCNC(=O)C1CCC[N+](CC(=O)Nc2c(C)cccc2C)(Cc2ccccc2)C1.[Br-] (stereo not drawn) [Compound 59A]
[1]
  PAMPA (10^−6 cm/s): + (“+” (<0.1 10^−6 cm/s))
NaV1.7
  inhibition at 3 µM: < 40%
  inhibition at 10 µM: 70 to 95%

## CCC(C(=O)Nc1c(C)cccc1C)[N+]1(Cc2cnc(C)s2)CCCCC1 (stereo not drawn) [Compound 25A]
NaV1.7
  inhibition at 10 µM: 40 to 70%

## CCC(C(=O)Nc1c(C)cccc1C)[N+]1(Cc2ccccc2)CCCCCC1.[Br-] (stereo not drawn) [Compound 30A, 1-benzyl-1-(1-((2,6-dimethylphenyl)amino)-1-oxobutan-2-yl) azepan-1-ium bromide]
[1]
  PAMPA (10^−6 cm/s): + (“+” (<0.1 10^−6 cm/s))
NaV1.7
  inhibition at 3 µM: > 90%
  inhibition at 10 µM: > 95%

## CCCCN(C(=O)OC(C)(C)C)c1ccc(NC(=O)C[N+]2(Cc3ccccc3)CCCCCC2)cc1 [Compound 40A, 1-benzyl-1-(2-((4-((tert-butoxycarbonyl) (butyl)amino)phenyl)amino)-2-oxoethyl) azepan-1-ium bromide]
NaV1.7
  inhibition at 10 µM: 40 to 70%

## CCC(C(=O)Nc1c(C)cccc1C)[N+]1(Cc2cccc(O)c2)CCCCC1 (stereo not drawn) [Compound 29A, 1-(1-((2,6-dimethylphenyl)amino)-1-oxobutan-2-yl)-1-(3-hydroxybenzyl) piperidin-1-ium carbonate]
NaV1.7
  inhibition at 3 µM: > 90%
  inhibition at 10 µM: 70 to 95%

## CCCCNc1ccc(NC(=O)C[N+]2(Cc3ccccc3)CCCCC2)cc1.O=C([O-])O [Compound 42A, 1-benzyl-1-(2-((4-(butylamino)phenyl)amino)-2-oxoethyl) piperidin-1-ium carbonate]
[1]
  PAMPA (10^−6 cm/s): ++ (“++” (0.1-2.0 10^−6 cm/s))

## CCCCNc1cc(C)c(NC(=O)C(CC)[N+]2(Cc3ccccc3)CCCCC2)c(C)c1 (stereo not drawn) [Compound 43A, 1-benzyl-1-(1-((4-(butylamino)-2,6-dimethylphenyl)amino)-1-oxobutan-2-yl) piperidin-1-ium carbonate]
NaV1.7
  inhibition at 10 µM: 70 to 95%

## CCC(C(=O)Nc1c(C)cccc1C)[N+]1(Cc2cccc(Cl)c2)CCCCC1 (stereo not drawn) [Compound 11A]
NaV1.7
  inhibition at 10 µM: > 95%

## CCC(C(=O)Nc1c(C)cccc1C)[N+]1(Cc2ccc(OC)cc2)CCCCC1 (stereo not drawn) [Compound 22A]
NaV1.7
  inhibition at 3 µM: 70 to 90%
  inhibition at 10 µM: 70 to 95%

Source: US11603355B2, “Charged ion channel blockers and methods for use” (Nocion Therapeutics, Inc., priority 2019, dated 2023)
